Laboratory results from US10183040B2, “Method for regulation of lipid metabolism” (PROFEAT BIOTECHNOLOGY CO., LTD., priority 2014, dated 2019).

Test: Serum triacylglycerol, cholesterol, HDL and LDL assays of diabetes mice, Table 4 groups (FIG. 4A-4D)
Assay type: in vivo, db/db mice (C57BLKS/J-leprdb/leprdb)
Settings: 4 mg/kg/day, versus phosphate solution control
Method: (§1) FIG. 4A is a bar chart of the triacylglycerol assay of diabetes mice in accordance with the present invention, wherein the mice of control group are administered with phosphate buffer; the mice of treatment group are administered with 4 mg/kg/day composition A1; the mice of B01 group are administered with commercial 4 mg/kg/day ferrous glycine, and the mice of C01 group are administered with 4 mg/kg/day ferrous sulfate.
as §1, with “4B” for “4A”, “cholesterol” for “triacylglycerol”, “sulfate. […]” for “sulfate.”
The mice were daily and orally administered with the composition A1 at dosage of […] for 12 weeks. The body weights of the mice were measured every 3 days, and the serum biochemical values of the mice were measured every 4 weeks after orally administering with the composition A1. Triacylglycerol and cholesterol of the serum biochemical values were determined using a Biochem-Immuno Fully Autoanalyzer (Brea, Calif., USA) or a Chemistry Analyzer (Hitachi, Ltd., Japan). […]

## NCC(=O)[O-].NCC(=O)[O-].[Fe+2] [commercial ferrous glycine, ferrous glycine]
  triacylglycerol: effectively reduced

## ferrous sulfate [commercial ferrous sulfate]
  triacylglycerol: effectively reduced
